Reference: patent publication US9663473B2 (Actelion Pharmaceuticals Ltd, priority 2013, dated 2017)
pEC50: −log10 of the molar value. Counter-ions that a name gives are not always drawn.

Molecular target: T1, recombinant human ALX receptor (Homo sapiens, UniProt P25090)
T1 construct: expressed in transfected cells; host or cells: HEK293 (HEK293-hALXR-Gα16)
T1 sequence (P25090 1-351): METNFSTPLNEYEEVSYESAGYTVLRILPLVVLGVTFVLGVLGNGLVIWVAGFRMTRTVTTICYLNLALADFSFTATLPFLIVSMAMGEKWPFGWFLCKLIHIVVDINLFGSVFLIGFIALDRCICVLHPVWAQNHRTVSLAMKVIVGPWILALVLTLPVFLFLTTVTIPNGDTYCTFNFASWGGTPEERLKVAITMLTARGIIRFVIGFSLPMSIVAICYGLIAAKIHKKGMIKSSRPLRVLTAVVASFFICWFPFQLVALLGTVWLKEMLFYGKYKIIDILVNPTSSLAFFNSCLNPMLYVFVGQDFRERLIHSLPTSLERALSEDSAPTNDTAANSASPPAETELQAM
Test: Intracellular calcium measurements (FLIPR), ALX receptor agonistic activity
Assay type: cell-based
Conditions: HEK293-hALXR-Gα16 cells, Fluo-4 calcium signal, normalized to WKYMVm 10 nM
In short: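 HEK293 cells co-expressing human ALX receptor and Gα16 were loaded with 1 μM Fluo-4 AM for 60 min at 37° C., then exposed to serially diluted compounds on FLIPR Tetra. Peak fluorescence above baseline (ex 488/em 540 nm) was normalized to 10 nM WKYMVm as high control.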

Compound	pEC50
COc1ccc(C[C@@H](NC(=O)NCCc2cccc(Cl)c2)c2nc3ccccc3[nH]2)cc1 [Example 61, (R)-1-(1-(1H-Benzo[d]imidazol-2-yl)-2-(4-methoxyphenyl)ethyl)-3-(3-chlorophenethyl)urea hydrochloride]	6.62
COc1ccc(C[C@@H](NC(=O)NCc2ccccc2CN2CCOCC2)c2nc3ccccc3[nH]2)cc1 [Example 62, (R)-1-(1-(1H-Benzo[d]imidazol-2-yl)-2-(4-methoxyphenyl)ethyl)-3-(2-(morpholinomethyl)benzyl)urea dihydrochloride]	7.32
COc1ccc(C[C@@H](NC(=O)NCCc2ccccc2C)c2nc3ccccc3[nH]2)cc1 [Example 63, (R)-1-(1-(1H-Benzo[d]imidazol-2-yl)-2-(4-methoxyphenyl)ethyl)-3-(2-methylphenethyl)urea hydrochloride]	6.98
COc1ccc(C[C@@H](NC(=O)NCc2cccnc2OCC(F)(F)F)c2nc3ccccc3[nH]2)cc1 [Example 64, (R)-1-(1-(1H-Benzo[d]imidazol-2-yl)-2-(4-methoxyphenyl)ethyl)-3-((2-(2,2,2-trifluoroethoxy)pyridin-3-yl)methyl)urea hydrochloride]	7.29
COc1ccc(C[C@@H](NC(=O)NCCC2CCCN2C)c2nc3ccccc3[nH]2)cc1 (stereo partly drawn) [Example 65, 1-((R)-1-(1H-Benzo[d]imidazol-2-yl)-2-(4-methoxyphenyl)ethyl)-3-(2-(1-methylpyrrolidin-2-yl)ethyl)urea dihydrochloride]	6.54
COc1ccc(C[C@@H](NC(=O)NCCc2ccc(C)cc2)c2nc3ccccc3[nH]2)cc1 [Example 66, (R)-1-(1-(1H-Benzo[d]imidazol-2-yl)-2-(4-methoxyphenyl)ethyl)-3-(4-methylphenethyl)urea hydrochloride]	6.36
COc1ccc(C[C@@H](NC(=O)NCCc2ccccc2)c2nc3ccccc3[nH]2)cc1 [Example 67, (R)-1-(1-(1H-Benzo[d]imidazol-2-yl)-2-(4-methoxyphenyl)ethyl)-3-phenethylurea]	6.38
COc1ccc(C[C@@H](NC(=O)NCCc2ccccc2F)c2nc3ccccc3[nH]2)cc1 [Example 68, (R)-1-(1-(1H-Benzo[d]imidazol-2-yl)-2-(4-methoxyphenyl)ethyl)-3-(2-fluorophenethyl)urea hydrochloride]	6.66
COc1ccc(C[C@@H](NC(=O)NCCC#N)c2nc3ccccc3[nH]2)cc1 [Example 69, (R)-1-(1-(1H-Benzo[d]imidazol-2-yl)-2-(4-methoxyphenyl)ethyl)-3-(2-cyanoethyl)urea]	6.20
COCC(Cc1ccccc1)NC(=O)N[C@H](Cc1ccc(OC)cc1)c1nc2ccccc2[nH]1 (stereo partly drawn) [Example 70, 1-((R)-1-(1H-Benzo[d]imidazol-2-yl)-2-(4-methoxyphenyl)ethyl)-3-(1-methoxy-3-phenylpropan-2-yl)urea]	7.77
COc1ccc(C[C@@H](NC(=O)NC2CCN(C3CC3)CC2)c2nc3ccccc3[nH]2)cc1 [Example 71, (R)-1-(1-(1H-Benzo[d]imidazol-2-yl)-2-(4-methoxyphenyl)ethyl)-3-(1-cyclopropylpiperidin-4-yl)urea]	7.28
COc1ccc(C[C@@H](NC(=O)NCC2CCc3ccccc32)c2nc3ccccc3[nH]2)cc1 (stereo partly drawn) [Example 72, 1-((R)-1-(1H-Benzo[d]imidazol-2-yl)-2-(4-methoxyphenyl)ethyl)-3-((2,3-dihydro-1H-inden-1-yl)methyl)urea]	7.17
CCOc1ccccc1CCNC(=O)N[C@H](Cc1ccc(OC)cc1)c1nc2ccccc2[nH]1 [Example 73, (R)-1-(1-(1H-Benzo[d]imidazol-2-yl)-2-(4-methoxyphenyl)ethyl)-3-(2-ethoxyphenethyl)urea]	7.00
COc1ccc(CC(NC(=O)NC2CCC(CO)CC2)c2nc3ccccc3[nH]2)cc1 (stereo not shown) [Example 74, 1-(1-(1H-Benzo[d]imidazol-2-yl)-2-(4-methoxyphenyl)ethyl)-3-(4-(hydroxymethyl)cyclohexyl)urea]	7.89
COc1ccc(C[C@@H](NC(=O)NC2CCCC2)c2nc3ccccc3[nH]2)cc1 [Example 75, (R)-1-(1-(1H-Benzo[d]imidazol-2-yl)-2-(4-methoxyphenyl)ethyl)-3-cyclopentylurea]	7.39
COc1ccc(C[C@@H](NC(=O)N[C@H]2CC[C@H](O)CC2)c2nc3cc(C)ccc3[nH]2)cc1 [Example 83, 1-(trans-4-Hydroxycyclohexyl)-3-((R)-2-(4-methoxyphenyl)-1-(5-methyl-1H-benzo[d]imidazol-2-yl)ethyl)urea]	8.77
COc1ccc(C[C@@H](NC(=O)NC2CN3CCC2CC3)c2nc3ccccc3[nH]2)cc1 (stereo partly drawn) [Example 89, 1-((R)-1-(1H-Benzo[d]imidazol-2-yl)-2-(4-methoxyphenyl)ethyl)-3-(quinuclidin-3-yl)urea]	7.82

The remaining lines, values ahead:

pEC50	Compound
7.96	COc1ccc(C[C@@H](NC(=O)N[C@H]2CC[C@H](O)CC2)c2nc3cc(OC)ccc3[nH]2)cc1 [Example 84, 1-(trans-4-Hydroxycyclohexyl)-3-((R)-1-(5-methoxy-1H-benzo[d]imidazol-2-yl)-2-(4-methoxyphenyl)ethyl)urea]
8.80	COc1ccc(C[C@@H](NC(=O)N[C@H]2CC[C@H](O)CC2)c2nc3cc(F)ccc3[nH]2)cc1 [Example 85, 1-((R)-1-(5-Fluoro-1H-benzo[d]imidazol-2-yl)-2-(4-methoxyphenyl)ethyl)-3-(trans-4-hydroxycyclohexyl)urea]
6.40	COc1ccc(C[C@@H](NC(=O)N2CCCCC2)c2nc3ccccc3[nH]2)cc1 [Example 86, (R)—N-(1-(1H-Benzo[d]imidazol-2-yl)-2-(4-methoxyphenyl)ethyl)piperidine-1-carboxamide]
7.85	COc1ccc(C[C@@H](NC(=O)NC2CC(C)(C)NC(C)(C)C2)c2nc3ccccc3[nH]2)cc1 [Example 87, (R)-1-(1-(1H-Benzo[d]imidazol-2-yl)-2-(4-methoxyphenyl)ethyl)-3-(2,2,6,6-tetramethylpiperidin-4-yl)urea]
7.00	COc1ccc(C[C@@H](NC(=O)NC2CCN(Cc3ccccc3)CC2)c2nc3ccccc3[nH]2)cc1 [Example 88, (R)-1-(1-(1H-Benzo[d]imidazol-2-yl)-2-(4-methoxyphenyl)ethyl)-3-(1-benzylpiperidin-4-yl)urea]
7.64	COc1ccc(C[C@@H](NC(=O)NC2CCN(C3CCCCC3)CC2)c2nc3ccccc3[nH]2)cc1 [Example 90, (R)-1-(1-(1H-Benzo[d]imidazol-2-yl)-2-(4-methoxyphenyl)ethyl)-3-(1-cyclohexylpiperidin-4-yl)urea]
6.25	COc1ccc(C[C@@H](NC(=O)N2CCCC2)c2nc3ccccc3[nH]2)cc1 [Example 91, (R)—N-(1-(1H-Benzo[d]imidazol-2-yl)-2-(4-methoxyphenyl)ethyl)pyrrolidine-1-carboxamide]
7.32	COc1ccc(C[C@@H](NC(=O)NCC2CCCC2)c2nc3ccccc3[nH]2)cc1 [Example 92, (R)-1-(1-(1H-Benzo[d]imidazol-2-yl)-2-(4-methoxyphenyl)ethyl)-3-(cyclopentylmethyl)urea]
7.80	COc1ccc(C[C@@H](NC(=O)NC2CCN(C(=O)OC(C)(C)C)C2)c2nc3ccccc3[nH]2)cc1 (stereo partly drawn) [Example 93, tert-butyl 3-(3-((R)-1-(1H-Benzo[d]imidazol-2-yl)-2-(4-methoxyphenyl)ethyl)ureido)pyrrolidine-1-carboxylate]
6.24	COc1ccc(C[C@@H](NC(=O)NCCO)c2nc3ccccc3[nH]2)cc1 [Example 94, (R)-1-(1-(1H-Benzo[d]imidazol-2-yl)-2-(4-methoxyphenyl)ethyl)-3-(2-hydroxyethyl)urea]
6.71	COc1ccc(C[C@@H](NC(=O)NCCCO)c2nc3ccccc3[nH]2)cc1 [Example 95, (R)-1-(1-(1H-Benzo[d]imidazol-2-yl)-2-(4-methoxyphenyl)ethyl)-3-(3-hydroxypropyl)urea]
6.82	COc1ccc(C[C@@H](NC(=O)NCCCCO)c2nc3ccccc3[nH]2)cc1 [Example 96, (R)-1-(1-(1H-Benzo[d]imidazol-2-yl)-2-(4-methoxyphenyl)ethyl)-3-(4-hydroxybutyl)urea]
6.91	CCC(CC)NC(=O)N[C@H](Cc1ccc(OC)cc1)c1nc2ccccc2[nH]1 [Example 97, (R)-1-(1-(1H-Benzo[d]imidazol-2-yl)-2-(4-methoxyphenyl)ethyl)-3-(pentan-3-yl)urea]
6.36	COc1ccc(C[C@@H](NC(=O)NCC2CCCCC2)c2nc3ccccc3[nH]2)cc1 [Example 98, (R)-1-(1-(1H-Benzo[d]imidazol-2-yl)-2-(4-methoxyphenyl)ethyl)-3-(cyclohexylmethyl)urea]
7.24	COc1ccc(C[C@@H](NC(=O)NC2CCCCCC2)c2nc3ccccc3[nH]2)cc1 [Example 99, (R)-1-(1-(1H-Benzo[d]imidazol-2-yl)-2-(4-methoxyphenyl)ethyl)-3-cycloheptylurea]
7.06	COc1ccc(C[C@@H](NC(=O)NC2CCNC2)c2nc3ccccc3[nH]2)cc1 (stereo partly drawn) [Example 100, 1-((R)-1-(1H-Benzo[d]imidazol-2-yl)-2-(4-methoxyphenyl)ethyl)-3-(pyrrolidin-3-yl)urea]
6.95	COc1ccc(C[C@@H](NC(=O)NC2CCN(C(C)C)CC2)c2nc3ccccc3[nH]2)cc1 [Example 101, (R)-1-(1-(1H-Benzo[d]imidazol-2-yl)-2-(4-methoxyphenyl)ethyl)-3-(1-isopropylpiperidin-4-yl)urea]
